# Results as given in patent US7001924B2, “Inhibitors of RNase P proteins as antibacterial compounds” (Message Pharmaceuticals, priority 2001, dated 2006).
# “Also recorded” adds a separate entry of the source. Where a name gives a salt, the structure may show the parent alone.
# How the values were obtained:
# [1] = tested on: N. gonorrhea RNase P (M1 RNA and C5 protein); assay: RNase P inhibition assay (fluorescence polarization, ptRNA Gln cleavage); format: biochemical; details: tested at 0.3, 1, 3 and 10 μM, result in words, numbers only in figures
# Excerpt: The ability of compounds of the invention to inhibit RNase P enzymes can be assessed by standard techniques. For example, the cleavage of ptRNA^Gln by the enzyme N. Gonorrhea RNase P, can be monitored in the presence and absence of a candidate compound as described in the Example 23. The progress of the RNase P-mediated cleavage reaction can be assessed by measuring the fluorescence polarization level of the TAMRA moiety hybridized to the cleaved substrate
# Compounds of the invention (see Table 1 and FIG. 3) were assayed for inhibition of RNase P activity. The assay components were the M1 RNA and C5 protein from N. gonorrhea and a model precursor tRNA substrate derived from Synechocystis ptGLN. The compounds were diluted in assay buffer (50 mM Tris-HCl, pH 7.5/100 mM […]/10 mM MgCl2/1 mM DTT/1 mg/ml BSA) from 2 μL of a 1 mM DMSO stock solutions in 384 well polypropylene plates to a concentration of 40 μM. 12.5 μL of each compound dilution was transferred to empty duplicate wells of two 384-well black polystyrene assay plates. One assay plate received 37.5 μL of assay buffer plus 12.5 μL of stop buffer (25 mM EDTA/1.25×SSC Buffer in PA buffer; SSC=150 mM NaCl, 15 mM sodium citrate and PA=50 mM TRIS hydrochloride, 100 mM ammonium chloride, 10 mM magnesium chloride) and was read immediately on a LJL Analyst fluorimeter to serve as a background fluorescence plate. The other plate sequentially received the following reagents diluted in assay buffer, 12.5 μL of 0.4 nM M1 RNA, 12.5 μL of 2 nM C5 protein, and 12.5 μL of 160 nM substrate. Wells were included that receive neither the M1 RNA nor the C5 protein to serve as no-enzyme controls. The enzymatic reaction was allowed to proceed for 30 minutes and was stopped by the addition of 12.5 μL per well of stop buffer containing 20 nM of a DNA-5′ TAMRA probe complementary to the 5′ end of the substrate. The probe was allowed to hybridize to the substrate for 2 hours, and the polarization status of the probe was measured using the LJL Analyst fluorimeter. All compounds were tested at 0.3 μM, 1 μM, 3 μM, and 10 μM concentrations. The results, which are expressed as a percentage of the control, were calculated using equation 1. In this equation, f is the fluorescence in counts per second; (f.enzyme+probe) is the fluorescence observed when enzymatic activity is uninhibited; (f.probe) is the fluorescence observed without enzymatic activity; and (f.compound+enzyme+probe) is the fluorescence observed when the enzymatic activity is modulated by a compound of the invention. Assay results for MES 35793 are shown in FIG. 7, and assay results for MES 31242, MES 82794, and MES 35793 are shown in FIG. 8. Other candidate RNase P inhibitors may be tested similarly using any RNase P holoenzyme and any appropriate RNase P substrate. [formula]
# N. gonorrhea = assay: Bacterial inhibition assay, N. Gonorrhea growth; format: cell-based; details: tested at 1, 3 and 10 μM, result in words
# Method: (§1) Compounds of the invention (see Table 1 and FIG. 3) were assayed for their ability to inhibit bacterial growth. Compounds were diluted from 10 mM DMSO stocks to 3 mM and 1 mM in DMSO. The compounds were further diluted from these stocks into saline for 200, […], and 20 μM stocks. Control antibiotics were diluted similarly. Overnight cultures of bacteria were made in the following manner. N. gonorrhea was streaked onto a chocolate agar plate and incubated at 35° C./5% CO2. A loopful from a stock plate of E. coli was added to 3 mL TSB medium, vortexed and incubated at 37° C. in the absence of CO2. An S. aureus culture was made as described for the E. coli culture, except that a nutrient broth was used instead of TSB medium. […]
# (§2) On the following day bacteria were prepared by dilution into saline with O.D. 625 nM readings taken to determine the concentration of the bacteria. CFUs (colony forming units) were determined using the formula: CFU/mL=OD625×(1.5×10^8 CFU/mL/OD McFarland std)×dilution. […] Plates were incubated at 35° C. with O2 for 16-20 hours for S. aureus, S. pyogenes, and E. coli and read at OD665 in the Victor2 plate reader. […] The plates were read at OD490. […] The results, which are expressed as a percentage of the control, were calculated using equation 2. […]
# [2] = tested on: bacterial growth (N. gonorrhea, E. coli, S. aureus, S. pyogenes); assay: Bacterial inhibition assay (species not stated); format: cell-based; details: tested at 1, 3 and 10 μM; species not given, refers to FIGS. 1A-2
# Method: The ability of compounds of the invention to inhibit bacterial growth can also be assessed by standard testing procedures, such as monitoring bacterial growth in the presence of one or more candidate compound. Any reduction in bacterial growth, in comparison to an uninhibited control, is a measure of the antibacterial activity of the compound. The antibacterial activity of some compounds of the invention were measured against N. gonorrhea, E. coli, S. aureus, and S. pyogenes (Example 23).
# Compounds of the invention (see Table 1 and FIG. 3) were assayed for their ability to inhibit bacterial growth. Compounds were diluted from 10 mM DMSO stocks to 3 mM and 1 mM in DMSO. The compounds were further diluted from these stocks into saline for 200, 120, and 20 μM stocks. Control antibiotics were diluted similarly. Overnight cultures of bacteria were made in the following manner. N. gonorrhea was streaked onto a chocolate agar plate and incubated at 35° C./5% CO2. A loopful from a stock plate of E. coli was added to 3 mL TSB medium, vortexed and incubated at 37° C. in the absence of CO2. An S. aureus culture was made as described for the E. coli culture, except that a nutrient broth was used instead of TSB medium. Rather than make an overnight culture of S. pyogenes, a loopful of S. pyogenes from a blood plate or a stock plate was used the following day for direct cell suspension.
# On the following day bacteria were prepared by dilution into saline with O.D. 625 nM readings taken to determine the concentration of the bacteria. CFUs (colony forming units) were determined using the formula: CFU/mL=OD625×(1.5×10^8 CFU/mL/OD McFarland std)×dilution. The four bacterial cultures were diluted initially to 5.5×10^7 CFU/mL. The bacteria were then further diluted into medium to 5.5×10^5 CFU/mL for S. aureus, S. pyogenes and E. coli and 5.5×10^6 CFU/mL for N. gonorrhea. S. aureus and E. coli are grown in CAMHB medium and S. pyogenes and N. gonorrhea in CAMHB-3% LHB medium. The bacteria were added one per plate at 200 μL per well. Compounds were added in 10 μL for final concentrations of 10, 3 and 1 μM in duplicate. Control antibiotics for S. aureus, oxacillin; for S. pyogenes, penicillin; for E. coli, ampicillin; and for N. gonorrhea, ciprofloxacin were added from 0.8 mg/ml to 0.003 mg/ml. Plates were incubated at 35° C. with O2 for 16-20 hours for S. aureus, S. pyogenes, and E. coli and read at OD665 in the Victor2 plate reader. Plates were incubated at 35° C. with 5% CO2 for 24 hours for N. gonorrhea at which time 40 μL of MTS reagent is added per well and incubated for 1 hour in same incubator. The plates were read at OD490. Compounds were tested at 1 μM, 3 μM, and 10 μM concentrations. The results, which are expressed as a percentage of the control, were calculated using equation 2. […]
# S. aureus = assay: Bacterial inhibition assay, S. aureus growth; format: cell-based; details: tested at 1, 3 and 10 μM, result in words
# Method: as §1, §2
SMILES,"inhibition of RNase P activity (fluorescence data, percentage of the control) [1]","inhibition of RNase P activity (fluorescence data, percentage of the control) ([1]; listed as MES10609)","inhibition of bacterial growth, N. Gonorrhea growth data (N. gonorrhea)",inhibitors of bacterial growth (summary statement) [2],"inhibition of bacterial growth, S. aureus data (S. aureus)","inhibition of RNase P activity (fluorescence data, percentage of the control) ([1]; listed as MES10636)"
"C/C(=N\NC(=N)N)c1cccc(C(=O)NCCNC(=O)c2cccc(/C(C)=N/NC(=N)N)c2)c1 [MES 10609, bisguanylhydrazone of N-(N′-2-(3-acetylbenzamido)-ethyl)-3-acetylbenzamide]",can inhibit RNase P activity,inhibitors of RNase P activity,can inhibit bacterial growth,inhibitors of bacterial growth,,
"C/C(=N\NC(=N)N)c1ccc(NC(=O)CNC(=O)c2cccc(/C(C)=N/NC(=N)N)c2)cc1 [MES 10635, Bisguanylhydrazone trifluoroacetic acid salt of N′-(3-acetylbenzoyl)-N-(4-acetylphenyl)glycinamide]",inhibitors of RNase P activity; also recorded: can inhibit a representative RNase P,,,inhibitors of bacterial growth,can inhibit bacterial growth,
"C/C(=N\NC(=N)N)c1ccc(NC(=O)[C@H](Cc2ccccc2)NC(=O)c2cccc(/C(C)=N/NC(=N)N)c2)cc1 [MES 10636, Bisguanylhydrazone trifluoroacetic acid salt of N′-(3-acetylbenzoyl)-N-(4-acetylphenyl)phenylalaninamide]",can inhibit a representative RNase P,,,inhibitors of bacterial growth,can inhibit bacterial growth,inhibitors of RNase P activity
CCN1/C(=C/C=C/c2sc3c4ccccc4ccc3[n+]2CC)Sc2cc(C)c(C)cc21 [MES 31242],can inhibit a representative RNase P,,,,,
CCN1/C(=C\C=c2/s/c(=C\c3sc4ccccc4[n+]3CC)n(CC)c2=O)Sc2ccccc21 [MES 35793],can inhibit RNase P activity; also recorded: can inhibit a representative RNase P,,can inhibit bacterial growth,inhibitors of bacterial growth,,
CCN1/C(=C/c2sc3ccc(O)cc3[n+]2CC)C=Cc2ccc(C)cc21 [MES 82794],can inhibit a representative RNase P,,,,,
